Data published in the supplement of paper PMC10307832.

Tests used:
Test in all cases: relative viability (nuclei count vs DMSO), 5 days (fraction); higher = more cells survive
AZ628 + Decitabine = compound: CC1=C(C=C(C=C1)NC(=O)C2=CC(=CC=C2)C(C)(C)C#N)NC3=CC4=C(C=C3)N=CN(C4=O)C [AZ628] + Nc1ncn([C@H]2C[C@H](O)[C@@H](CO)O2)c(=O)n1 [Decitabine] (partner 2 µM)
Summary of the method: (§1)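 Relative viability was taken as the ratio of nuclei in treated wells to nuclei in vehicle wells. Lung cancer cell lines in 1536-well plates received compounds by pin tool one day after seeding, either one drug alone or a fixed anchor-drug dose plus five library-drug doses (not always all listed) in √10 steps. Nuclei were counted on 4× images after 5 days of treatment, and values are medians of duplicate plates.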

QS11 + Linsitinib = compound: C1CC2=C(C1)C=C(C=C2)OC3=NC(=C4C(=N3)N(C=N4)CC5=CC=C(C=C5)C6=CC=CC=C6)N[C@@H](CC7=CC=CC=C7)CO [QS11] + C[C@]1(O)C[C@@H](c2nc(-c3ccc4ccc(-c5ccccc5)nc4c3)c3c(N)nccn32)C1 [Linsitinib] (partner 1 µM)
Summary of the method: as §1

AZ628 + Foretinib = compound: CC1=C(C=C(C=C1)NC(=O)C2=CC(=CC=C2)C(C)(C)C#N)NC3=CC4=C(C=C3)N=CN(C4=O)C [AZ628] + COc1cc2c(Oc3ccc(NC(=O)C4(C(=O)Nc5ccc(F)cc5)CC4)cc3F)ccnc2cc1OCCCN1CCOCC1 [Foretinib] (partner 0.25 µM)
Summary of the method: as §1

Darinaparsin + Alpelisib = compound: C[As](C)SC[C@H](NC(=O)CC[C@H](N)C(=O)O)C(=O)NCC(=O)O [Darinaparsin] + Cc1nc(NC(=O)N2CCC[C@H]2C(N)=O)sc1-c1ccnc(C(C)(C)C(F)(F)F)c1 [Alpelisib] (partner 2 µM)
Summary of the method: as §1

Row | Cell Line | relative viability (AZ628 + Decitabine; first compound 0.08 µM) | relative viability (AZ628 + Decitabine; first compound 0.253 µM) | relative viability (AZ628 + Decitabine; first compound 0.8 µM) | relative viability (AZ628 + Decitabine; first compound 2.53 µM) | relative viability (AZ628 + Decitabine; first compound 8 µM) | relative viability (QS11 + Linsitinib; first compound 0.08 µM) | relative viability (QS11 + Linsitinib; first compound 0.253 µM) | relative viability (QS11 + Linsitinib; first compound 0.8 µM) | relative viability (QS11 + Linsitinib; first compound 2.53 µM) | relative viability (QS11 + Linsitinib; first compound 8 µM) | relative viability (AZ628 + Foretinib; first compound 0.08 µM) | relative viability (AZ628 + Foretinib; first compound 0.253 µM) | relative viability (AZ628 + Foretinib; first compound 0.8 µM) | relative viability (AZ628 + Foretinib; first compound 2.53 µM) | relative viability (AZ628 + Foretinib; first compound 8 µM) | relative viability (Darinaparsin + Alpelisib; first compound 0.08 µM) | relative viability (Darinaparsin + Alpelisib; first compound 0.8 µM) | relative viability (Darinaparsin + Alpelisib; first compound 2.53 µM) | relative viability (Darinaparsin + Alpelisib; first compound 8 µM)
1 | NCI-H1755 | 0.763 | 0.691 | 0.718 | 0.73 | 0.676 | 1.07 | 0.577 | 0.595 | 0.814 | 0.871 | 0.905 | 0.929 | 0.858 | 0.965 | 0.867 | 1.26 | 0.896 | 0.892 | 1.28
2 | NCI-H650 | 0.349 | 0.396 | 0.46 | 0.335 | 0.336 | 0.81 | 0.943 | 0.859 | 0.87 | 0.929 | 1.02 | 1.21 | 1.19 | 1.14 | 1.13 | 1.17 | 1.15 | 1.27 | 1.31
3 | SW 1573 | 0.503 | 0.445 | 0.435 | 0.408 | 0.374 | 0.837 | 0.729 | 0.824 | 0.817 | 0.696 | 0.858 | 0.858 | 0.664 | 0.7 | 0.517 | 0.744 | 0.729 | 0.472 | 0.832
4 | NCI-H322M | 0.659 | 0.716 | 0.696 | 0.681 | 0.688 | 0.93 | 0.914 | 0.931 | 1.02 | 0.936 | 1.05 | 0.985 | 0.952 | 1.02 | 0.829 | 0.89 | 0.692 | 0.632 | 0.787
5 | ABC-1 | 1.07 | 0.898 | 1.07 | 1.18 | 1.07 | 0.955 | 0.646 | 0.88 | 0.801 | 0.929 | 0.96 | 1.17 | 1.19 | 0.944 | 0.943 | 0.966 | 1.16 | 1.07 | 1.28
6 | NCI-H1993 | 0.587 | 0.518 | 0.639 | 0.463 | 0.55 | 0.622 | 0.718 | 0.682 | 0.7 | 0.857 | 1.05 | 0.68 | 0.714 | 0.715 | 0.667 | 0.712 | 0.681 | 0.688 | 0.678
7 | NCI-H1355 | 0.414 | 0.322 | 0.381 | 0.344 | 0.265 | 0.762 | 0.791 | 0.671 | 0.84 | 0.712 | 0.976 | 0.937 | 1.03 | 1.02 | 0.871 | 0.955 | 0.8 | 0.785 | 0.92
8 | PC-3 [JPC-3] | 0.86 | 0.813 | 0.924 | 0.827 | 0.642 | 0.939 | 0.978 | 0.964 | 0.947 | 0.97 | 1.01 | 1.07 | 1.05 | 1.03 | 0.92 | 1.02 | 0.982 | 0.992 | 1.11
9 | NCI-H2342 | 0.837 | 0.651 | 0.779 | 0.726 | 0.747 | – | – | – | – | – | 1.08 | 1.01 | 1.16 | 1.24 | 1.12 | – | – | – | –
10 | NCI-H1703 | – | – | – | – | – | 1.1 | 0.48 | 1.06 | 0.752 | 0.611 | 0.327 | 0.41 | 0.415 | 0.302 | 0.413 | 0.612 | 0.345 | 0.283 | 0.39
11 | NCI-H1563 | – | – | – | – | – | 1.16 | 1.3 | 1.26 | 1.34 | 1.32 | 0.957 | 0.997 | 0.944 | 0.963 | 0.953 | 0.903 | 0.91 | 1.01 | 0.894
12 | NCI-H1299 | – | – | – | – | – | 0.999 | 0.995 | 0.787 | 0.87 | 0.959 | 1.12 | 1.3 | 1.3 | 1.24 | 0.58 | 1.09 | 1.18 | 0.904 | 1.18
13 | NCI-H2170 | 0.448 | 0.483 | 0.446 | 0.439 | 0.456 | – | – | – | – | – | 0.992 | 1.07 | 1.03 | 1.07 | 0.913 | 0.927 | 0.759 | 0.629 | 1.13
14 | NCI-H522 | 0.62 | 0.66 | 0.686 | 0.78 | 0.522 | – | – | – | – | – | – | – | – | – | – | – | – | – | –
15 | NCI-H1648 | 0.72 | 0.563 | 0.453 | 0.453 | 0.489 | – | – | – | – | – | – | – | – | – | – | – | – | – | –
16 | NCI-H1792 | 0.605 | 0.532 | 0.514 | 0.476 | 0.121 | – | 0.559 | 0.43 | 0.537 | 0.68 | – | – | – | – | – | 0.684 | 0.575 | 0.493 | 1.03
17 | CAL-12T | – | – | – | – | – | 1.01 | 0.693 | 0.695 | 0.688 | 0.7 | 1.16 | 1.05 | 1.13 | 0.994 | 0.559 | 1.41 | 1.01 | 1.28 | 1.89
18 | EBC-1 | – | – | – | – | – | 0.966 | 0.86 | 0.696 | 0.75 | 1.05 | 0.117 | 0.11 | 0.111 | 0.0929 | 0.0846 | 0.802 | 0.773 | 0.728 | 0.958
19 | IA-LM | – | – | – | – | – | 0.548 | 0.417 | 0.29 | 0.389 | 0.601 | 1.28 | 1.04 | 0.821 | 0.861 | 0.2 | 1.02 | 0.663 | 1.4 | 0.965
20 | ChaGo-K-1 | 0.548 | 0.504 | 0.558 | 0.524 | 0.481 | – | – | – | – | – | 0.962 | 0.837 | 0.924 | 0.916 | 0.751 | – | – | – | –
21 | NCI-H1650 | 0.586 | 0.485 | 0.429 | 0.382 | 0.615 | – | – | – | – | – | 1.33 | 1.34 | 1.42 | 1.26 | 1.02 | – | – | – | –
